Results on three molecules are retold here after ChEMBL document CHEMBL1177692 (Bioorg Med Chem, 2010).

The assay concerns the target Carbonic anhydrase 9 (Homo sapiens, UniProt Q16790). As to the kind of experiment: Inhibition of human recombinant carbonic anhydrase 9 catalytic domain preincubated for 15 mins by CO2 hydration method.
`COc1ccc2c(CC(=O)Nc3ccc(S(N)(=O)=O)cc3)cc(=O)oc2c1`: the Ki (usually a dissociation constant, usually derived from enzyme kinetics or from competition with a known ligand) stood at 87 nM. As for `COc1ccc2c(CC(=O)Nc3cccc(S(N)(=O)=O)c3)cc(=O)oc2c1`, the Ki amounted to 59 nM. The same measure for `COc1ccc2c(CC(=O)Nc3cc(C(F)(F)F)c(S(N)(=O)=O)cc3S(N)(=O)=O)cc(=O)oc2c1`: 14 nM.
